This is an account of results in patent US20210379210A1, “RADIOLIGANDS FOR IMAGING THE LPA1 RECEPTOR” (BRISTOL-MYERS SQUIBB COMPANY, priority 2018, published 2021).

Several values for one entry are separate records, joined by “and”; a condition that tells them apart may be missing. Equal entries are not always repeated. Where two headings read alike, the source gives them in different places.

Data set [1] is described as follows: Free fraction (free of protein binding) of the PET radioligand. The conditions noted are these: read-out: free fractions, free of protein binding. It counts as in vitro ADME.
A short description of data set [2]: In-vivo PET imaging, lung uptake in wild type and bleomycin treated rats. More on the design: species or system rat. The conditions noted are these: Sprague Dawley, rat, lung, intravenous. On the procedure: (§1) [^18F]-(1S,3S)-3-(((6-(5-((((4-(fluoro)butyl)(methyl)carbamoyl)oxy)methyl)-1-methyl-1H-1,2,3-triazol-4-yl)-2-methylpyridin-3-yl)oxy)cyclohexane-1-carboxylic acid was tested to confirm its properties, specificity and targeting of the LPA1 receptor in aged-matched wild type (Sprague Dawley rat, Charles River Laboratory, PA) and bleomycin-induced pulmonary fibrosis rat models. The bleomycin-induced pulmonary fibrosis rat model was generated in anesthetized rats that were administered bleomycin (2 μL/g) via oropharyngeal instillation. For oropharyngeal instillation, anesthetized rats (isoflurane, 4% in 100% 02) were placed on a slanted board/tilting workstation and bleomycin was dripped onto the vocal cords, facilitating aspiration. Rats were then returned to their cages until they fully recovered from anesthesia and were monitored daily for the duration of the experiment. In this experiment, the [^18F]-labeled LPA1 antagonist, produced as described in the above Examples, was tested for its ability to discriminate between normal lung in wild type rats and increased lung LPA1 expression in the bleomycin rat disease model. The bleomycin treated rats were used at 14 and 15 days post bleomycin treatment. PET images were acquired at 14 days (baseline) and 15 days (blocking with a 10 mg/kg oral dose of an LPA1 antagonist administered 30 minutes before PET scan). Two groups of rats were used in the PET imaging study—aged matched wild type rats (Group 1, n=4) and bleomycin treated rats (Group 2, n=4). All animals received a baseline PET imaging scan and a repeat PET imaging scan following a single 10 mg/kg oral dose of an LPA1 antagonist. For PET image acquisition, rats were placed in an anesthetic induction chamber and 3% isoflurane inhalant anesthesia was delivered in 100% O2 at a rate of 1-1.5 L/min. Once sedated, the rats were removed from the induction chamber and placed into a plexiglass 2-chamber holder (custom-made by BMS-Applied Biotechnology group) within the gantry of the PET system (microPET® F220™, Siemens Preclinical Solutions, Knoxville, Tenn.) where they remained for the duration of the study. Anesthesia was maintained with 1-1.5% isoflurane inhalant anesthesia delivered in 100% 02 at a rate of 2 L/min via the nose-cone. Animals were kept warm using an external standalone temperature regulating unit (M2M Imaging Corp) to prevent hypothermia during imaging. Rat respiration was continuously monitored during imaging procedures and isoflurane was adjusted dependent on depth of anesthesia. A 10-minute transmission image was first acquired using a ^57Co point source for the purpose of attenuation correction of the final PET images and confirmation of lung localization for region of interest (ROI) analysis. The scanning region was located beginning at the neck area and extending toward the hind limbs of each animal in order to place the lungs within the 7.6 cm microPET system axial field of view (FOV). Upon completion of the transmission scan, each rat received administration of between 19.5-29.7 MBq (542-803 μCi) of [^18F]-(1S,3S)-3-(((6-(5-((((4-(fluoro)butyl)(methyl) carbamoyl)oxy)methyl)-1-methyl-1H-1,2,3-triazol-4-yl)-2-methylpyridin-3-yl)oxy)cyclohexane-1-carboxylic acid tracer via tail vein catheter followed by a 2 hour dynamic PET emission scan. For blocking studies, the same protocol was flowed 30 minutes after a 10 mg/kg oral dose of an LPA1 antagonist. Images were reconstructed using a maximum a posteriori (MAP) algorithm with attenuation correction using the collected transmission images and corrected for radioisotope decay. The PET images were then co-registered with corresponding transmission images using anatomical landmarks (air in lung) and boundaries of the animal holder. Images were analyzed by Inveon Research Workstation (Siemens Medical Solutions USA Inc., PA). Analysis for each rat was done with regions of interest (ROIs) drawn onto each whole lung and a section of the liver using the co-registered transmission images. […]

Another data set concerns the target LPA1 (Rattus norvegicus, UniProt P61794). Described as above. The following applies: for Lung uptake (% ID/g) @ 60-90 min: baseline PET scan, listed as [^18F]-(1S,3S)-3-(6-(5-((((4-(fluoro)butyl)(methyl)carbamoyl)oxy)methyl)-1-meth)). On the procedure: as §1

Sequence of LPA1 (P61794 whole entry): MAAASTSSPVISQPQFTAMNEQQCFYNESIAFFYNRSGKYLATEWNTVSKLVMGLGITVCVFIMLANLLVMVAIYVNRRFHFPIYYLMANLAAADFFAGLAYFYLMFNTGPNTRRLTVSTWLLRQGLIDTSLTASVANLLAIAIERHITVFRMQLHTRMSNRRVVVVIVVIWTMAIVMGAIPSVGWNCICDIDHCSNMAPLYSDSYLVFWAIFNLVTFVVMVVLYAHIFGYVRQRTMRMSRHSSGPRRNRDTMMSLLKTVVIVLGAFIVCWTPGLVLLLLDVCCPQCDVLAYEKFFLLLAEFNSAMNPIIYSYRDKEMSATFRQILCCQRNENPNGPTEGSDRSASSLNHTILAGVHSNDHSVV

As for `Cc1nc(-c2nnn(C)c2COC(=O)N(C)CCCC[18F])ccc1O[C@H]1CCC[C@H](C(=O)O)C1` [Example 16], the fraction unbound in data set [1] lay in the range of 0.05 to 0.11. Further, the tissue uptake came out at 0.116 %ID/g in data set [2] (bleomycin treated rats (Group 2, n=4), baseline, 60-90 minutes post injection, read-out: mean and standard error of radiotracer uptake in lung tissue); 0.116 %ID/g in data set [2] (individual bleomycin treated rats (Group 2), baseline PET scan, 14 days post bleomycin, read-out: Lung uptake (% ID/g) @ 60-90 min); 0.085 %ID/g in data set [2] (individual wild type rats (Group 1), baseline PET scan, read-out: Lung uptake (% ID/g) @ 60-90 min); 0.08 %ID/g in data set [2] (wild type rats (Group 1, n=4), baseline, 60-90 minutes post injection, read-out: mean and standard error of radiotracer uptake in lung tissue). Moreover, the “increase in the lung radioligand signal in disease induced model vs wild type animals” value at LPA1 (bleomycin treated vs wild type rats, baseline, p<0.05) amounted to 46%. The “Lung uptake (% ID/g) @ 60-90 min” value at LPA1 (individual bleomycin treated rats (Group 2), 14 days post bleomycin) was 0.142 % ID/g and 0.118 % ID/g and 0.088 % ID/g; on LPA1 (individual wild type rats (Group 1)) it was 0.075 % ID/g and 0.063 % ID/g and 0.095 % ID/g.
